Assays:
[1] = Stability of Tc-99m labeled compound by radioTLC; format: physicochemical; conditions: for Eluent A / Eluent B: in % (unit assumed)
Protocol: (§1) After 2.0 mg of GP-104 was dissolved in 1.8 mL of water for injection and 0.2 mL of ethanol, the resulting solution was allowed to stand with a pH of about 5 at room temperature for 10 minutes when 20 μL of SnCl2 (15 mg/mL) and 2 mL of Tc-99m were added thereto, and the reaction was terminated by adjusting the pH to 7 using a NaOH solution. Stability up to 4 hours was confirmed by radioTLC under conditions of pH 5 and pH 7, respectively, and the results are summarized in the following Table 1. (TLC analysis conditions: iTLC was used, Eluent A: methyl ethyl ketone 100%, Eluent B: pyridine:acetic acid:purified water=3:5:15, and purity calculation: Eluent A−Eluent B)
as §1, with “ethanol, pH was adjusted to about 5 and” for “ethanol,”, “stand” for “stand with a pH of about 5”, “(15 mg/mL), 20 μL of cysteine (10” for “(15”, “Table 2.” for “Table 1.”
(§2) After 2.0 mg of GP-105 was dissolved in 1.8 mL of water for injection and 0.2 mL of ethanol, the pH was adjusted to about 5 and the resulting solution was allowed to stand at room temperature for 10 minutes when 20 μL of SnCl2 (15 mg/mL) and 2 mL of Tc-99m were added thereto, and the reaction was terminated by adjusting the pH to 7 using a NaOH solution. Stability until 4 hours under conditions of pH 5 and pH 7 was each confirmed by radioTLC. (TLC analysis conditions: iTLC was used, Eluent A: methyl ethyl ketone 100%, Eluent B: pyridine:acetic acid:purified water=3:5:15, and purity calculation: Eluent A−Eluent B)
as §2, with “ethanol,” for “ethanol, the”, “(15 mg/mL), 20 μL of cysteine (10” for “(15”

[2] = biological target: T1, glycoprotein IIb/IIIa (Rattus norvegicus, UniProt A0A8I6GGN2+Q8R2H2); test: Glycoprotein IIb/IIIa specific uptake in thrombotic disease model, gamma counter / microSPECT; format: in vivo, rats
T1 construct: a disease model in which a thrombus was formed with glycoprotein IIb/IIIa overexpressed; from tissue; host or cells: in vivo rat carotid artery thrombus (ferric chloride model)
T1 sequence (A0A8I6GGN2 32-1037): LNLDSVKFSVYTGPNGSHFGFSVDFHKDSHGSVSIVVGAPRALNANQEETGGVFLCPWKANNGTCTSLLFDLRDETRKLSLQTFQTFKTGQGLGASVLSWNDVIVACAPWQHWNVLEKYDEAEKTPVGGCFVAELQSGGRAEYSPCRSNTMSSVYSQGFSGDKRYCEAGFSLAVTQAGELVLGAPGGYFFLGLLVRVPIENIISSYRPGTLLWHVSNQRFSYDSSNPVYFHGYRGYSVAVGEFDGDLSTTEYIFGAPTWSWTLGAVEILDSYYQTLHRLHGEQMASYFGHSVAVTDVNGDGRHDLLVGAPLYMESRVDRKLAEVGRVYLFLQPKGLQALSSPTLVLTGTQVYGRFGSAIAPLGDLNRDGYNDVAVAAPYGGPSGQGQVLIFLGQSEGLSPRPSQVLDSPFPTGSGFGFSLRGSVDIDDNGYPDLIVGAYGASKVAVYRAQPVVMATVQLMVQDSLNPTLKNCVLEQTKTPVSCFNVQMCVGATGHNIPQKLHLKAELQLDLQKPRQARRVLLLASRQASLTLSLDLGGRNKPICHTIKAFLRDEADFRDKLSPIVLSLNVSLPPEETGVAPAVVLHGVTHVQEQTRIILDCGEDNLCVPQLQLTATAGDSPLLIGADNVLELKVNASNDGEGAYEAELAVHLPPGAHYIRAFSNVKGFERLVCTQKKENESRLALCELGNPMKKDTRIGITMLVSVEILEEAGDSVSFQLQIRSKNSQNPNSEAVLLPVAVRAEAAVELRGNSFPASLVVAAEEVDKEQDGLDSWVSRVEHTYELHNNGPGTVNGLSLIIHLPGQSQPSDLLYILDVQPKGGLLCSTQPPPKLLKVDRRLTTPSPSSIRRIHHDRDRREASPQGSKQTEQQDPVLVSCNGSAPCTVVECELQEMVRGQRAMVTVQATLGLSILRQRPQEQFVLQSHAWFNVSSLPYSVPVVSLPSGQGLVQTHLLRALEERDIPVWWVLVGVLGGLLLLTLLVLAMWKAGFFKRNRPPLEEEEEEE
T1 sequence (Q8R2H2 26-787): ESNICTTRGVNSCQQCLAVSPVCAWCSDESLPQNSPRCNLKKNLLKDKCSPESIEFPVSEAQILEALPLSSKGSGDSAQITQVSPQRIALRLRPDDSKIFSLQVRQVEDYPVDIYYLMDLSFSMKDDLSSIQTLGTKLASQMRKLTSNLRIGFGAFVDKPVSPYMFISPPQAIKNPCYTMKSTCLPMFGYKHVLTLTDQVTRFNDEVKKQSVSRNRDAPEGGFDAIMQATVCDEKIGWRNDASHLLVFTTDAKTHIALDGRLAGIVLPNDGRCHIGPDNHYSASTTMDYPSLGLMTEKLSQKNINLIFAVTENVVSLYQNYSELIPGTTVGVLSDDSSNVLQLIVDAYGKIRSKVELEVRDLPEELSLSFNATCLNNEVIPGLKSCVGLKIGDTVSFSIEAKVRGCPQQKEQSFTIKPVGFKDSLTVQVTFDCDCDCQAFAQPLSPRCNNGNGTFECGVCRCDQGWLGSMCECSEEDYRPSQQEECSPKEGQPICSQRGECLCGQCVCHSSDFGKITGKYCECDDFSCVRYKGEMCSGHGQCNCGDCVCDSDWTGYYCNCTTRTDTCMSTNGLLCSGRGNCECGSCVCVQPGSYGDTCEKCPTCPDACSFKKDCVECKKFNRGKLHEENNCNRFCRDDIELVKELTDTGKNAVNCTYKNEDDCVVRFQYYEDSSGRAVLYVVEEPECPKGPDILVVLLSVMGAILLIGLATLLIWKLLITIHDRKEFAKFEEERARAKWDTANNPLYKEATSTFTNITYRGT
Text: After 6-week-old rats were anesthetized to make a thrombotic disease model, the carotid artery was secured by opening the skin on the carotid artery side. Then, a filter paper soaked with a 5% ferric chloride solution was exposed on the artery, and then washed three times or more with physiological saline, and the incised skin was sutured again to make a model. […]

[3] = Stability of Tc-99m labeled compound, labeling purity by HPLC; format: physicochemical; conditions: Ex 3-3
[4] = Ex 3-1, no cysteine, pH 5, 0 hour
[5] = Ex 3-1, no cysteine, pH 5, 0.5 hours
[6] = Ex 3-1, no cysteine, pH 5, 1.0 hour
[7] = Ex 3-1, no cysteine, pH 5, 1.5 hours
[8] = Ex 3-1, no cysteine, pH 5, 2.0 hours
[9] = Ex 3-1, no cysteine, pH 5, 3.0 hours
[10] = Ex 3-1, no cysteine, pH 5, 4.0 hours
[11] = Ex 3-1, no cysteine, pH 7, 0 hour
[12] = Ex 3-1, no cysteine, pH 7, 0.5 hours
[13] = Ex 3-1, no cysteine, pH 7, 1.0 hour
[14] = Ex 3-1, no cysteine, pH 7, 1.5 hours
[15] = Ex 3-1, no cysteine, pH 7, 2.0 hours
[16] = Ex 3-1, no cysteine, pH 7, 3.0 hours
[17] = Ex 3-1, no cysteine, pH 7, 4.0 hours
[18] = Ex 3-2, cysteine, pH 5, 0.5 hours
[19] = Ex 3-2, cysteine, pH 5, 1.0 hour
[20] = Ex 3-2, cysteine, pH 5, 1.5 hours
[21] = Ex 3-2, cysteine, pH 5, 2.0 hours
[22] = Ex 3-2, cysteine, pH 5, 3.0 hours
[23] = Ex 3-2, cysteine, pH 5, 4.0 hours
[24] = Ex 3-2, cysteine, pH 7, 0.5 hours
[25] = Ex 3-2, cysteine, pH 7, 1.0 hour
[26] = Ex 3-2, cysteine, pH 7, 1.5 hours
[27] = Ex 3-2, cysteine, pH 7, 2.0 hours
[28] = Ex 3-2, cysteine, pH 7, 3.0 hours
[29] = Ex 3-2, cysteine, pH 7, 4.0 hours
[30] = gamma counter, sacrificed at the 2nd hour

Purity [1, 4]: 90.28% | Eluent A [1, 4]: 95.7 | Eluent B [1, 4]: 5.42 | Purity [1, 5]: 91.36% | Eluent A [1, 5]: 95.42 | Eluent B [1, 5]: 4.06 | Purity [1, 6]: 82.28% | Eluent A [1, 6]: 98.43 | Eluent B [1, 6]: 16.15 | Purity [1, 7]: 72.79% | Eluent A [1, 7]: 85.7 | Eluent B [1, 7]: 12.91 | Purity [1, 8]: 70.11% | Eluent A [1, 8]: 91.79 | Eluent B [1, 8]: 21.68 | Purity [1, 9]: 67.71% | Eluent A [1, 9]: 91.64 | Eluent B [1, 9]: 23.93 | Purity [1, 10]: 55.93% | Eluent A [1, 10]: 80.48 | Eluent B [1, 10]: 24.55 | Purity [1, 11]: 90.59% | Eluent A [1, 11]: 98.26 | Eluent B [1, 11]: 7.67 | Purity [1, 12]: 78.04% | Eluent A [1, 12]: 92.82 | Eluent B [1, 12]: 14.78 | Purity [1, 13]: 78.31% | Eluent A [1, 13]: 94.51 | Eluent B [1, 13]: 16.2 | Purity [1, 14]: 82.7% | Eluent A [1, 14]: 96.11 | Eluent B [1, 14]: 13.41 | Purity [1, 15]: 76.61% | Eluent A [1, 15]: 96.22 | Eluent B [1, 15]: 19.61 | Purity [1, 16]: 77.93% | Eluent A [1, 16]: 87.58 | Eluent B [1, 16]: 9.65 | Purity [1, 17]: 54.14% | Eluent A [1, 17]: 73.22 | Eluent B [1, 17]: 19.08 | Purity ([1]; Ex 3-2, cysteine, pH 5, 0 hour): 85.97% | Eluent A ([1]; Ex 3-2, cysteine, pH 5, 0 hour): 89.51 | Eluent B ([1]; Ex 3-2, cysteine, pH 5, 0 hour): 3.54 | Purity [1, 18]: 87.89% | Eluent A [1, 18]: 93.51 | Eluent B [1, 18]: 5.62 | Purity [1, 19]: 90.39% | Eluent A [1, 19]: 93.61 | Eluent B [1, 19]: 3.22 | Purity [1, 20]: 93.47% | Eluent A [1, 20]: 95.55 | Eluent B [1, 20]: 2.08 | Purity [1, 21]: 82.97% | Eluent A [1, 21]: 91.17 | Eluent B [1, 21]: 8.2 | Purity [1, 22]: 86.06% | Eluent A [1, 22]: 89.61 | Eluent B [1, 22]: 3.55 | Purity [1, 23]: 87.56% | Eluent A [1, 23]: 91.99 | Eluent B [1, 23]: 4.43 | Purity ([1]; Ex 3-2, cysteine, pH 7, 0 hour): 96.94% | Eluent A ([1]; Ex 3-2, cysteine, pH 7, 0 hour): 100 | Eluent B ([1]; Ex 3-2, cysteine, pH 7, 0 hour): 3.06 | Purity [1, 24]: 93.36% | Eluent A [1, 24]: 98.3 | Eluent B [1, 24]: 4.94 | Purity [1, 25]: 96.35% | Eluent A [1, 25]: 98.27 | Eluent B [1, 25]: 1.92 | Purity [1, 26]: 97.69% | Eluent A [1, 26]: 100 | Eluent B [1, 26]: 2.31 | Purity [1, 27]: 97.12% | Eluent A [1, 27]: 100 | Eluent B [1, 27]: 2.88 | Purity [1, 28]: 94.14% | Eluent A [1, 28]: 100 | Eluent B [1, 28]: 5.86 | Purity [1, 29]: 95.76% | Eluent A [1, 29]: 100 | Eluent B [1, 29]: 4.24 | Purity ([1]; addition of cysteine, pH of 7, even after 4 hours (text to Table 2)): ≥ 90% | specific uptake in the disease model [2]: high specific uptake | target to non target ratio ([2]; gamma counter, 2nd hour): 2.0 | counts per minute (CPM)/g value, left artery [2, 30]: 1.3 CPM/g | counts per minute (CPM)/g value, right artery [2, 30]: 2.5 CPM/g | purity (HPLC) ([3]; addition of cysteine after reaction, pH 3, 3 hours): 42.46% | purity (HPLC) ([3]; addition of cysteine before reaction, pH 3, 0 hour): 95.6% | purity (HPLC) ([3]; addition of cysteine before reaction, pH 7, 3 hours): 98.53%
Compound: O=C(O)C[C@H](NC(=O)[C@@H]1CCCN(C(=O)CCC2CCNCC2)C1)c1cncc(OCCNC(=O)CN2CCN3CCN(CC(=O)O)CC(=O)[O][99Tc+]([O]C(=O)C3)[O]C(=O)C2)c1 [[Tc-99m]GP-104]
background radioactivity excretion ([2]; microSPECT until 4 hours): quick background radioactivity excretion effect

Source: US12527886B2, “Radiopharmaceuticals and composition for thrombus imaging” (THE ASAN FOUNDATION, priority 2020, dated 2026)
